# Assay results as given in ChEMBL document CHEMBL5131495, “Discovery of unique thiazolidinone-conjugated coumarins as novel broad spectrum antibacterial agents” (Eur J Med Chem, 2022).
# Active and inactive are the calls of the source. The rule behind the calls is not given here.
# Tests used:
# [1] = tested on: Staphylococcus aureus; assay: Antibacterial activity against Staphylococcus aureus ATCC 25923 assessed as inhibition of bacterial growth; type: functional
# [2] = Cytotoxicity against human liver cancer cells assessed as cell viability at 10 ug/ml by CCK8 method relative to control; type: functional; details: read-out: Activity
# [3] = tested on: Enterococcus faecalis; assay: Antibacterial activity against Enterococcus faecalis assessed as inhibition of bacterial growth; type: functional
# [4] = tested on: Cell membrane; assay: Induction of cell membrane destruction in Acinetobacter baumannii assessed as reduction in metabolic activity; type: subcellular; details: DDE = dose-dependent effect
# [5] = tested on: Acinetobacter baumannii; assay: Induction of ROS production in Acinetobacter baumannii by DCFH-DA staining based fluorescence analysis; type: functional; details: DDE = dose-dependent effect
# [6] = tested on: Acinetobacter baumannii; assay: Antibacterial activity against Acinetobacter baumannii assessed fold increase in malondialdehyde production measured at upto 16 times MIC; type: functional
# [7] = tested on: Acinetobacter baumannii; assay: Induction of ROS production in Acinetobacter baumannii assessed as fold change at 16 times MIC by DCFH-DA staining based fluorescence analysis; type: functional
# [8] = Cytotoxicity against human endothelial cells assessed as cell viability at 10 ug/ml by CCK8 method relative to control; type: toxicity, cell-based; details: at 10 µg/mL, read-out: Activity
# [9] = tested on: Cell membrane; assay: Induction of cell membrane depolarization in Acinetobacter baumannii assessed as increase in fluorescence intensity at MIC by DiSC35 dye-based fluorescence assay; type: subcellular; details: time <= 60.0 min, TDE = time-dependent effect
# [10] = tested on: Klebsiella pneumoniae; assay: Antibacterial activity against Klebsiella pneumoniae assessed as inhibition of bacterial growth; type: functional
# [11] = tested on: Pseudomonas aeruginosa; assay: Antibacterial activity against Pseudomonas aeruginosa assessed as inhibition of bacterial growth; type: functional
# [12] = tested on: Staphylococcus aureus; assay: Antibacterial activity against Staphylococcus aureus assessed as inhibition of bacterial growth; type: functional
# [13] = tested on: Acinetobacter baumannii; assay: Antibacterial activity against Acinetobacter baumannii assessed as reduction in GSH activity by Ellman's method; type: functional, organism-based; details: DDE = dose-dependent effect
# [14] = tested on: Escherichia coli; assay: Antibacterial activity against Escherichia coli assessed as inhibition of bacterial growth; type: functional
# [15] = tested on: Calf thymus DNA; assay: Binding affinity to calf thymus DNA assessed as hypochromic shift by UV-vis spectrophotometric analysis; type: nucleic-acid assay; details: Bos taurus
# [16] = tested on: Acinetobacter baumannii; assay: Anti- biofilm activity against Acinetobacter baumannii assessed as decrease in biofilm viability at 2 ug/ml by resazurin dye based assay relative to control; type: functional; details: dose 2 µg/ml
# [17] = tested on: Cell membrane; assay: Induction of inner membrane permeabilization in Acinetobacter baumannii assessed as increase in fluorescence intensity by propidium iodide staining based fluorescence analysis; type: subcellular; details: DDE = dose-dependent effect
# [18] = tested on: Calf thymus DNA; assay: Binding affinity to calf thymus DNA assessed as reduction in fluorescence intensity of acridine orange-DNA complex formation by measuring […] by competitive binding assay; type: nucleic-acid assay; details: Bos taurus; DDE = dose-dependent effect
# [19] = tested on: Cell membrane; assay: Induction of outer membrane permeabilization in Acinetobacter baumannii assessed as increase in fluorescence intensity at MIC by NPN-dye based fluorescence assay; type: subcellular; details: time <= 120.0 min
# [20] = tested on: Staphylococcus aureus; assay: Antibacterial activity against methicillin resistant Staphylococcus aureus N315 assessed as inhibition of bacterial growth; type: functional
# [21] = tested on: Staphylococcus aureus; assay: Antibacterial activity against Staphylococcus aureus ATCC 29213 assessed as inhibition of bacterial growth; type: functional
# [22] = tested on: Cell membrane; assay: Induction of cell membrane damage in Acinetobacter baumannii assessed as increase in protein leakage; type: subcellular
# [23] = tested on: Acinetobacter baumannii; assay: Antibacterial activity against Acinetobacter baumannii assessed as inhibition of bacterial growth; type: functional
# [24] = tested on: Cell membrane; assay: Induction of inner membrane permeabilization in Acinetobacter baumannii assessed as increase in red fluorescence intensity by fluorescence microscopic analysis
# [25] = Hemolytic activity in human RBC assessed as hemolysis rate at 64 times MIC relative to control; type: toxicity, cell-based, Erythrocyte; details: red blood cells (erythrocytes), read-out: Activity
# [26] = tested on: Escherichia coli; assay: Antibacterial activity against Escherichia coli ATCC 25922 assessed as inhibition of bacterial growth; type: functional
# [27] = tested on: Cell membrane; assay: Induction of cell membrane damage in Acinetobacter baumannii assessed as increase in nucleic acid leakage by measuring fold increase in absorbance at 8 times MIC by spectrophotometry; type: subcellular
# [28] = tested on: Pseudomonas aeruginosa; assay: Antibacterial activity against Pseudomonas aeruginosa ATCC 27853 assessed as inhibition of bacterial growth; type: functional
SMILES,MIC [1],MIC [3],MIC [10],MIC [11],MIC [12],MIC [14],MIC [20],MIC [21],MIC [23],MIC [26],MIC [28],further results
Cc1cc(=O)oc2cc(/N=C3/S/C(=C\c4c[nH]c5ccccc45)C(=O)N3CCO)ccc12,0.25 µg/mL,0.25 µg/mL,0.5 µg/mL,256 µg/mL,2 µg/mL,0.25 µg/mL,0.25 µg/mL,0.25 µg/mL,0.25 µg/mL,1 µg/mL,32 µg/mL,viability at 10 µg/mL [2]: 47%; Activity [4]: Dde; Activity [5]: Dde; fold change (FC) [6]: 3; fold change (FC) [7]: 5.3; viability at 10 ug/ml [8]: 75%; Activity [9]: Tde; Activity [13]: Dde; Activity [15]: Active; Activity [16]: 45%; Activity [17]: Dde; Activity [18]: Dde; Activity [19]: Active; Activity [22]: Active; Activity [24]: Active; hemolysis at 64 times MIC [25]: < 5%; fold change (FC) [27]: 3.8
Cc1cc(=O)oc2cc(/N=C3\NC(=O)CS3)ccc12,64 µg/mL,256 µg/mL,4 µg/mL,64 µg/mL,32 µg/mL,16 µg/mL,256 µg/mL,256 µg/mL,256 µg/mL,128 µg/mL,128 µg/mL,–
Cc1cc(=O)oc2cc(/N=C3/SCC(=O)N3CCO)ccc12,16 µg/mL,128 µg/mL,128 µg/mL,128 µg/mL,128 µg/mL,2 µg/mL,128 µg/mL,64 µg/mL,0.5 µg/mL,64 µg/mL,32 µg/mL,–
Cc1cc(=O)oc2cc(/N=C3/S/C(=C\c4ncc[nH]4)C(=O)N3CCO)ccc12,128 µg/mL,64 µg/mL,16 µg/mL,32 µg/mL,8 µg/mL,32 µg/mL,64 µg/mL,32 µg/mL,16 µg/mL,64 µg/mL,128 µg/mL,–
